{"source": "paper PMC5762315", "about": "“Inhibition of polo-like kinase 4 (PLK4): a new therapeutic option for rhabdoid tumors and pediatric medulloblastoma” (Oncotarget, 2017)", "test_in_all_cases": "LanthaScreen Eu Kinase Binding Assay, panel of 486 biochemical kinase assays", "key": {"[1]": {"target": "various kinases (Homo sapiens, UniProt Q86Y07)", "sequence (Q86Y07 whole entry)": "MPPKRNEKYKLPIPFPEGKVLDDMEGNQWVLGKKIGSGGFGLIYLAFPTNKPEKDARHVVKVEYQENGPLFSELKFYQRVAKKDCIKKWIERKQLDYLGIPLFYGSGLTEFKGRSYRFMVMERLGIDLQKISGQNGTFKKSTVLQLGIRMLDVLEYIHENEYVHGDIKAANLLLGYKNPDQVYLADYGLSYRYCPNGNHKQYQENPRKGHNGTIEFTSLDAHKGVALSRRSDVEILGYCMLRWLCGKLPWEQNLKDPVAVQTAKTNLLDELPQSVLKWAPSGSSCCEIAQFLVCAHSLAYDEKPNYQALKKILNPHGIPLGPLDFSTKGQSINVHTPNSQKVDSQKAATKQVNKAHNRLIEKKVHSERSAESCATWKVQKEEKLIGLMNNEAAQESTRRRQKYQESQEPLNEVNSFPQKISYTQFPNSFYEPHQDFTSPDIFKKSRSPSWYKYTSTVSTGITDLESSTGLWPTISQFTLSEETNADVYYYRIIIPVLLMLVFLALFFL", "details": "kinase VRK2; LanthaScreen Binding"}, "[2]": {"target": "various kinases (Homo sapiens, UniProt Q9Y2U5)", "details": "MAP3K2 (MEKK2)"}, "[3]": {"target": "T1, various kinases (Homo sapiens, UniProt Q7L7X3)", "T1 sequence (Q7L7X3 1-1001)": "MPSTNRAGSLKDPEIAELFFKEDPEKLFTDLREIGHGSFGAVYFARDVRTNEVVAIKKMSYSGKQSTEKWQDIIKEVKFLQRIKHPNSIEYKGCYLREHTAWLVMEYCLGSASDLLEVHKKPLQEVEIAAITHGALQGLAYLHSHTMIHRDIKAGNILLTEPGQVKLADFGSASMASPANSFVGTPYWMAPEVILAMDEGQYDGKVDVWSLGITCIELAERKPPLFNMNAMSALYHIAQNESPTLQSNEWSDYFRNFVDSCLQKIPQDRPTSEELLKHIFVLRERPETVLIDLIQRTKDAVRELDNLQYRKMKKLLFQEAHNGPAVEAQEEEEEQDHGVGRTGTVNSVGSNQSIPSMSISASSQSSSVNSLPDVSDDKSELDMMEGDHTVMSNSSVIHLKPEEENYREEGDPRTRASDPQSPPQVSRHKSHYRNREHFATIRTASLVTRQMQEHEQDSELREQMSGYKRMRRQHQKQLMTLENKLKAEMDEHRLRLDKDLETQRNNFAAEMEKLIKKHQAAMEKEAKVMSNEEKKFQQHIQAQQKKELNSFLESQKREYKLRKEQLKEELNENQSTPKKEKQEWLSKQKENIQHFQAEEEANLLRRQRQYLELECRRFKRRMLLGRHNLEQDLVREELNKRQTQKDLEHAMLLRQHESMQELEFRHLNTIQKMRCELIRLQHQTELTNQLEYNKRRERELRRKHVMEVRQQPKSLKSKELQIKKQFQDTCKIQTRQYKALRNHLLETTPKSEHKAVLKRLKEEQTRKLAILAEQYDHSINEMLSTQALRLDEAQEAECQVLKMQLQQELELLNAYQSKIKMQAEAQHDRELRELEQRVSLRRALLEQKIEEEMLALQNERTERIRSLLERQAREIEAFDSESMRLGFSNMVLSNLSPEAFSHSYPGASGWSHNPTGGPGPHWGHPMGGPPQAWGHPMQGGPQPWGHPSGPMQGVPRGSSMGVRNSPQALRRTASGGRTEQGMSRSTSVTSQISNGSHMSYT", "details": "kinase TAOK1; LanthaScreen Binding"}, "[4]": {"target": "various kinases (Homo sapiens, UniProt P10721, T670E)", "sequence (P10721 26-976 T670E)": "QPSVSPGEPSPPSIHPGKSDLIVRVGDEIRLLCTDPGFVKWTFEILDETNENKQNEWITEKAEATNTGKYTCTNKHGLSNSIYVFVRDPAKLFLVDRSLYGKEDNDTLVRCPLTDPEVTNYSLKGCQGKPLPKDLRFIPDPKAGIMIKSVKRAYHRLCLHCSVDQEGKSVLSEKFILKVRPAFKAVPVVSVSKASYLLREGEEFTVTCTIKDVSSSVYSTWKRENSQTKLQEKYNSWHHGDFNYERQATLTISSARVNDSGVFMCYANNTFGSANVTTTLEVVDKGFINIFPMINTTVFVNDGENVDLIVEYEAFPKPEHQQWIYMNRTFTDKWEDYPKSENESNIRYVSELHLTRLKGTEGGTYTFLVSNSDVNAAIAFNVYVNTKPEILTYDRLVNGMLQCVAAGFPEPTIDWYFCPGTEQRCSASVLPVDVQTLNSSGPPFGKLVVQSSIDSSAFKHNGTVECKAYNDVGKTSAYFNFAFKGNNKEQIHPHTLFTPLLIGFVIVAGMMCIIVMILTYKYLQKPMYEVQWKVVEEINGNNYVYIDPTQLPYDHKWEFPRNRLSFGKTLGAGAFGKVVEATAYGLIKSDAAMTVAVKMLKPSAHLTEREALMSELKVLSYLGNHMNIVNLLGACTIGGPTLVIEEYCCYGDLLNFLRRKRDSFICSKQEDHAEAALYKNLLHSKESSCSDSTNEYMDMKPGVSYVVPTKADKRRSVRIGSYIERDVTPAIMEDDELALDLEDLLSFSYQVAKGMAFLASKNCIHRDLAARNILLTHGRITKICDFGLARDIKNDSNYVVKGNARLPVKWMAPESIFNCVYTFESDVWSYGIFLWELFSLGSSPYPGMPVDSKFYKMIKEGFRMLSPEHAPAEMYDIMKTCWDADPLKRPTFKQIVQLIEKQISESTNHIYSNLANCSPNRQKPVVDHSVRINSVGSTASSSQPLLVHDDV", "details": "KIT T670E"}, "[5]": {"target": "various kinases (Homo sapiens, UniProt P54646)", "sequence (P54646 whole entry)": "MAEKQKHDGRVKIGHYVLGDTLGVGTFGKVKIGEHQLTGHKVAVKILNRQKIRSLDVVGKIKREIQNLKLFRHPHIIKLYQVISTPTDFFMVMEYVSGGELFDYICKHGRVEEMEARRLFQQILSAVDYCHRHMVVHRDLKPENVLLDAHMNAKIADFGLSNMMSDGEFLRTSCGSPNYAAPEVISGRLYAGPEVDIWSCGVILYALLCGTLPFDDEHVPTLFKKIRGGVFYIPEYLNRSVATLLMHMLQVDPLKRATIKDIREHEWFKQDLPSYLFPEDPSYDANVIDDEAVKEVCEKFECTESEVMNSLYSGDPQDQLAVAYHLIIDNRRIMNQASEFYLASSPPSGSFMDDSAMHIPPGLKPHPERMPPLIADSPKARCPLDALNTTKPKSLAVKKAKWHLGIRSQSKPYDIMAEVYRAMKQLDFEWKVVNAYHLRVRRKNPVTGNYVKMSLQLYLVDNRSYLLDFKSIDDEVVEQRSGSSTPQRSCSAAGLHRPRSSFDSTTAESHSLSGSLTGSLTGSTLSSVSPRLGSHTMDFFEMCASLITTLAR"}, "[6]": {"target": "various kinases (Homo sapiens, UniProt Q86UE8)", "sequence (Q86UE8 whole entry)": "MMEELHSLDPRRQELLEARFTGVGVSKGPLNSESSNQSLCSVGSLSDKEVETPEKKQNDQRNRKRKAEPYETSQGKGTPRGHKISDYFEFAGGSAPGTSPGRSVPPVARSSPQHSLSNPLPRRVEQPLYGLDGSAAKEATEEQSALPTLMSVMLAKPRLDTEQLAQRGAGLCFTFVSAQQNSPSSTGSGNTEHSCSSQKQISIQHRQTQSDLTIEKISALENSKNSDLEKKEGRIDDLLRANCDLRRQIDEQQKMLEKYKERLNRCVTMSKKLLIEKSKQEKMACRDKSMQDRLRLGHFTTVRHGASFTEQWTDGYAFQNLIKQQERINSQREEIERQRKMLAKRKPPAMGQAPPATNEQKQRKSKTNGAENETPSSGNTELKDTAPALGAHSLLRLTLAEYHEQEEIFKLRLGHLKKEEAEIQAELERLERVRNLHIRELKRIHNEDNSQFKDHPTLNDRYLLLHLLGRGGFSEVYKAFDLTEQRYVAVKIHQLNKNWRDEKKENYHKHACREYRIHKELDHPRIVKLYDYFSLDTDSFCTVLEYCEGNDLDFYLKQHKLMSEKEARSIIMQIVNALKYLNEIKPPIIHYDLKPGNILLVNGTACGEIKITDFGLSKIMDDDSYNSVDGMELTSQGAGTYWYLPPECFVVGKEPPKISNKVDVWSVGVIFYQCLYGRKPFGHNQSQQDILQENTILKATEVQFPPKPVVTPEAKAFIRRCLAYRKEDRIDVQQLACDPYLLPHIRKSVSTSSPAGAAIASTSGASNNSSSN", "details": "kinase TLK2; LanthaScreen Binding"}, "[7]": {"target": "various kinases (Homo sapiens, UniProt Q15375)", "details": "EPHA7"}, "[8]": {"target": "T2, various kinases (Homo sapiens, UniProt Q99640)", "T2 sequence (Q99640 1-499)": "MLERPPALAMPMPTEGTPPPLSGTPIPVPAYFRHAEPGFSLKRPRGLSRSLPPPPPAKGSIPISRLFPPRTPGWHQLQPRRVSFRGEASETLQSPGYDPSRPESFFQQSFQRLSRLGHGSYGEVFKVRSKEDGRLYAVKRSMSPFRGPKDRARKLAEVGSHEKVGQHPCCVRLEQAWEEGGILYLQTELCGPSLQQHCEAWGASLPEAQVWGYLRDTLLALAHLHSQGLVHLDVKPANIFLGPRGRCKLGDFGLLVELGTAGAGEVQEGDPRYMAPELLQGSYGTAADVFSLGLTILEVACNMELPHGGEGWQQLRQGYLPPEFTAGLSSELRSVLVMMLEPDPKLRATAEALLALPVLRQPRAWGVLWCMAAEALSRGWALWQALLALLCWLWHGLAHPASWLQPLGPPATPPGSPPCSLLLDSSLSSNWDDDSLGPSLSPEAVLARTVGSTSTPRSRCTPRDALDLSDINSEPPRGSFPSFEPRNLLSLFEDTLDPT", "details": "kinase PKMYT1; LanthaScreen Binding"}, "[9]": {"target": "various kinases (Homo sapiens, UniProt Q04771, R206H)", "details": "ACVR1 (ALK2) R206H"}, "[10]": {"target": "various kinases (Homo sapiens, UniProt Q8NEV4)", "details": "MYO3A (MYO3 alpha)"}, "[11]": {"target": "various kinases (Homo sapiens, UniProt Q32MK0)", "details": "MLCK (MLCK2)"}, "[12]": {"target": "various kinases (Homo sapiens, UniProt Q86UX6)", "sequence (Q86UX6 whole entry)": "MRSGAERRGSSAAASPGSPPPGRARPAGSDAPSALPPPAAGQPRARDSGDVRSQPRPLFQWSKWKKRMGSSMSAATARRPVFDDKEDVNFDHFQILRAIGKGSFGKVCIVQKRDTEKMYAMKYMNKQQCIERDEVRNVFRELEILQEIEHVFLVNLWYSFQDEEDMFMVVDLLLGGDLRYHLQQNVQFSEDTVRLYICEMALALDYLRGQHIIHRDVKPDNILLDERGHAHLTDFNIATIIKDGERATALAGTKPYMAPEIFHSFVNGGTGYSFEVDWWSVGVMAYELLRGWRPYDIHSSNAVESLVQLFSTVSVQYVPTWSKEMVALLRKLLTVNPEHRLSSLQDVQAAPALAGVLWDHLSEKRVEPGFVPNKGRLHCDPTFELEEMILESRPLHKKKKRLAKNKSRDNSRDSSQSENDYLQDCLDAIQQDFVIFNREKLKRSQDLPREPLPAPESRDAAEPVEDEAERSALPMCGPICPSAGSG", "details": "kinase STK32C (YANK3); LanthaScreen Binding"}, "[13]": {"target": "various kinases (Homo sapiens, UniProt Q8NI60)", "details": "ADCK3"}, "[14]": {"target": "various kinases (Homo sapiens, UniProt P49336)", "sequence (P49336 whole entry)": "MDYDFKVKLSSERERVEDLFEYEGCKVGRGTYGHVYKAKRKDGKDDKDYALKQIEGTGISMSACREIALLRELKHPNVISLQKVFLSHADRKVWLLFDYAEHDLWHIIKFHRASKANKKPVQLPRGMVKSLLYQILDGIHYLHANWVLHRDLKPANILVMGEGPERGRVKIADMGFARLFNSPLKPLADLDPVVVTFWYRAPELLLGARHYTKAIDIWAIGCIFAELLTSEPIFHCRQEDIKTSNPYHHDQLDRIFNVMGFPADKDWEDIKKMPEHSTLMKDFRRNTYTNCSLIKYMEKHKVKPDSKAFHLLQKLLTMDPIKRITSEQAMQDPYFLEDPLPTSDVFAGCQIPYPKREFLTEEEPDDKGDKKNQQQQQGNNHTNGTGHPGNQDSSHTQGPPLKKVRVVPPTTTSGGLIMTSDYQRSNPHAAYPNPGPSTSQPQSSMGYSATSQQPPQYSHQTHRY", "details": "CDK8/cyclin C"}, "[15]": {"target": "various kinases (Homo sapiens, UniProt Q9HBH9)", "details": "MKNK2 (MNK2)"}, "[16]": {"target": "various kinases (Homo sapiens, UniProt Q13131)", "sequence (Q13131 whole entry)": "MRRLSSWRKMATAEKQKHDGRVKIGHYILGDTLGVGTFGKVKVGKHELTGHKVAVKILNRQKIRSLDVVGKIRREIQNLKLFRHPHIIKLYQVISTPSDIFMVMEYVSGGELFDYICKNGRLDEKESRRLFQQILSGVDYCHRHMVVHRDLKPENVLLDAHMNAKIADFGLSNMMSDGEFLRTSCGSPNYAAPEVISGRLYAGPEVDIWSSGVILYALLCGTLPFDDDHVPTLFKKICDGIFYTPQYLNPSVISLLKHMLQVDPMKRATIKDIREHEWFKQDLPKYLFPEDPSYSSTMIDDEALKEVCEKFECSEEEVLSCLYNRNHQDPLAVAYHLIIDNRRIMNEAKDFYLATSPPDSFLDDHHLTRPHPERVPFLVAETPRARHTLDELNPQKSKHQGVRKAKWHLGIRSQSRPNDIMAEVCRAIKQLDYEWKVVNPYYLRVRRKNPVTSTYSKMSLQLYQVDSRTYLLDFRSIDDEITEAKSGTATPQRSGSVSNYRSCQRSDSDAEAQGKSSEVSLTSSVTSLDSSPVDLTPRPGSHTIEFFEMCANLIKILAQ"}, "[17]": {"target": "various kinases (Homo sapiens, UniProt P24941)"}, "[18]": {"target": "various kinases (Homo sapiens, UniProt P45985)", "sequence (P45985 whole entry)": "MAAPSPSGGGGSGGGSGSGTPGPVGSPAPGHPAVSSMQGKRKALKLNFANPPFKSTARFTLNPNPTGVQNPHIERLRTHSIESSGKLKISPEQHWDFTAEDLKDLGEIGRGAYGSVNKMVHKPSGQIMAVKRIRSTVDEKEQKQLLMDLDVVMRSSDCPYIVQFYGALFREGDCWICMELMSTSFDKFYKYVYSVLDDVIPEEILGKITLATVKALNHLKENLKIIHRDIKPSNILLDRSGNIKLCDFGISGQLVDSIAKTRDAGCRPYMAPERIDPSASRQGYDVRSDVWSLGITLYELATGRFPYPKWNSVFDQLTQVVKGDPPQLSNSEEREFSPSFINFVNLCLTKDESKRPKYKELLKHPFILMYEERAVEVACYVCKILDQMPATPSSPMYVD", "details": "MAP2K4 (MEK4)"}, "[19]": {"target": "various kinases (Homo sapiens, UniProt P06493)", "sequence (P06493 whole entry)": "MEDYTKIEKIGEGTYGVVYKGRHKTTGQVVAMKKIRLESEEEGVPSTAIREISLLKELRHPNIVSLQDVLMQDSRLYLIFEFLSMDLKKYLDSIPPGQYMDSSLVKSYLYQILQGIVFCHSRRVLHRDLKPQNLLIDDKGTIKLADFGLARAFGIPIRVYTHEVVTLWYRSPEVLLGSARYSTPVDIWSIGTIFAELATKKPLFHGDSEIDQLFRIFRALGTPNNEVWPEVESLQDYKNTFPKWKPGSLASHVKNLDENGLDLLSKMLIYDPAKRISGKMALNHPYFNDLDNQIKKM", "details": "CDK1/cyclin A2"}}, "note": "“And” between values parts separate entries of the source, which are not always exact repeats. Equal entries are not always repeated."}
{"compound": "COc1ccc2c(c1)[C@]1(C[C@H]1c1ccc3c(/C=C/c4ccc(CN5C[C@@H](C)O[C@@H](C)C5)cc4)n[nH]c3c1)C(=O)N2", "note": "[CFI-400945]", "values": [{"measurement": "% Inhibition Average", "setting": "[1]", "value": 13, "unit": "%"}, {"measurement": "% Inhibition Duplicate #1", "setting": "[1]", "value": 17, "unit": "%"}, {"measurement": "% Inhibition Duplicate #2", "setting": "[1]", "value": 8, "unit": "%"}, {"measurement": "% Inhibition", "setting": "[2]", "value": "-1% and 4%"}, {"measurement": "% Inhibition Average", "setting": "[3]", "value": 14, "unit": "%"}, {"measurement": "% Inhibition Duplicate #1", "setting": "[3]", "value": 15, "unit": "%"}, {"measurement": "% Inhibition Duplicate #2", "setting": "[3]", "value": 13, "unit": "%"}, {"measurement": "% Inhibition", "setting": "[4]", "value": "9% and 6%"}, {"measurement": "% Inhibition", "setting": "[5]; AMPK (A2/B2/G1)", "value": "14% and 19%"}, {"measurement": "% Inhibition", "setting": "[5]; AMPK (A2/B2/G2)", "value": "14% and 12%"}, {"measurement": "% Inhibition Average", "setting": "[6]", "value": 9, "unit": "%"}, {"measurement": "% Inhibition Duplicate #1", "setting": "[6]", "value": 14, "unit": "%"}, {"measurement": "% Inhibition Duplicate #2", "setting": "[6]", "value": 5, "unit": "%"}, {"measurement": "% Inhibition", "setting": "[7]", "value": "-4% and 5%"}, {"measurement": "% Inhibition Average", "setting": "[8]", "value": 31, "unit": "%"}, {"measurement": "% Inhibition Duplicate #1", "setting": "[8]", "value": 31, "unit": "%"}, {"measurement": "% Inhibition Duplicate #2", "setting": "[8]", "value": 30, "unit": "%"}, {"measurement": "% Inhibition", "setting": "[9]", "value": "9% and 13%"}, {"measurement": "% Inhibition", "setting": "[10]", "value": 8, "unit": "%"}, {"measurement": "% Inhibition", "setting": "[11]", "value": "1% and 6%"}, {"measurement": "% Inhibition Average", "setting": "[12]", "value": 15, "unit": "%"}, {"measurement": "% Inhibition Duplicate #1", "setting": "[12]", "value": 14, "unit": "%"}, {"measurement": "% Inhibition Duplicate #2", "setting": "[12]", "value": 17, "unit": "%"}, {"measurement": "% Inhibition", "setting": "[13]", "value": "-1% and -4%"}, {"measurement": "% Inhibition", "setting": "[14]", "value": "17% and 9%"}, {"measurement": "% Inhibition", "setting": "[15]", "value": "26% and 29%"}, {"measurement": "% Inhibition", "setting": "[16]; AMPK (A1/B1/G2)", "value": "13% and 9%"}, {"measurement": "% Inhibition", "setting": "[16]; AMPK (A1/B1/G3)", "value": "10% and 15%"}, {"measurement": "% Inhibition", "setting": "[16]; AMPK (A1/B2/G1)", "value": "14% and 13%"}, {"measurement": "% Inhibition", "setting": "[17]; CDK2/cyclin A1", "value": "12% and 19%"}, {"measurement": "% Inhibition", "setting": "[17]; CDK2/cyclin E1", "value": 9, "unit": "%"}, {"measurement": "% Inhibition", "setting": "[17]; CDK2/cyclin O", "value": "13% and 19%"}, {"measurement": "% Inhibition", "setting": "[18]", "value": "7% and 3%"}, {"measurement": "% Inhibition", "setting": "[19]", "value": "24% and 17%"}]}
